According to patent US20030228281A1, “Use of mutant herpes viruses and anticancer agents in the treatment of cancer” (priority 2000, published 2003):

How the values were obtained:
[1] = tested on: G207; assay: Effect of HU and FUdR on G207 replication in HCT8 cells; type: cell-based, herpes simplex virus (HSV) type 1
Experimental: FIG. 4 depicts the results of experiments showing the effects of FUdR and HU on viral replication. HCT8 cells were infected with 2 pfu of G207 per cell. After adsorption of 1 hour at 37° C. inoculum was removed, cells were washed with PBS, and medium containing 10 nM FUdR or control medium without FUdR was added. At 8 hours pi, infected cells in presence and absence of FUdR were exposed to 1 mM HU. At 36 hours pi cells and supernatant were harvested and lysates were prepared by three cycles of freezing and thawing. Viral titers (A) and β-galactosidase activity (B) of the lysate were determined. All assays were performed in triplicates for each condition (avg ± SEM).
Vero cultures were carried for at least one subculture in E-MEM, 2 mM L-glutamine, 10% FCS. Cultures were plated at a density of 1×10^6 cells per well of 6-well plates and incubated at 37° C. in 5% CO2 in air in a humidified incubator. The following day, cultures were washed 2× with PBS, and serial dilutions of cell lysates (0.8 ml/well) were adsorbed onto triplicate dishes for 4 hours at 37° C. Cell lysates were prepared by 4 freeze-thaw cycles. Following adsorption, inoculum was removed, and cultures were overlaid with agar containing medium. Cultures were stained with neutral red 2 days post-inoculation, and plaque formation was assessed the next day.

[2] = tested on: β-galactosidase expression; assay: β-galactosidase activity (lacZ reporter gene in G207) in infected cells; type: cell-based; settings: HCT8, 2 pfu G207 per cell, 10 nM FUdR, 1 mM HU from 8 hours pi, 36 hours pi
Experimental: FIG. 2 depicts the results of experiments showing the influence of FUdR on β galactosidase expression following infection with G207. Cells (2×10^4) were plated in 24-well plates, and were infected with G207 at an MOI of 0.01 in presence (10 nM, oblique; 100 nM, black) and absence (white) of FUdR. At day 3 following infection, cells were lysed and total β-galactosidase activity of cell lysates was measured (A). Cell counts for each condition were determined in additional wells by trypan blue exclusion and specific activity was calculated by referring total activity to viable cell number (B). All assays were performed in triplicates (avg ± SEM). For lacZ staining 3×10^5 cells were plated onto 25 cm^2 flasks. Twelve hours later cells were infected with G207 in the presence and absence of FUdR under the same conditions as described above. At day 3 pi, cytospin slides were prepared and stained with X-gal for lacZ expression.
FIG. 4 depicts the results of experiments showing the effects of FUdR and HU on viral replication. […] Viral titers (A) and β-galactosidase activity (B) of the lysate were determined. […]
Activity of β-galactosidase was determined by monitoring the conversion of o-nitrophenyl galactoside (ONPG) to o-nitrophenol and galactose (β-Galactosidase Reporter Assay, Pierce, Rockford, Ill.). […] The reaction rate was determined by spectrophotometric measurement of o-nitrophenol at λ=405 nm. […]

NC(=O)NO [HU, hydroxyurea]
Viral titer, cells treated with HU and FUdR ([1]; 1 mM HU and 10 nM FUdR, 36 hours pi): 2.1±0.5×10^4 pfu | Viral titer, cells treated with HU alone ([1]; 1 mM HU from 8 hours pi, 36 hours pi): 1.9±0.5×10^4 pfu | Suppression of viral replication ([1]; 1 mM HU, HCT8 cells): 90% | Effect on β-galactosidase expression [2]: neither FUdR nor HU had significant effects
